For data set [1], the target named is T1, SARS-CoV-2 spike RBD/ACE2 (Severe acute respiratory syndrome coronavirus 2, UniProt P0DTC2).
T1 construct: a SARS-CoV-2 RBD protein derived from USA-WA1/2020 and containing a C-terminal His tag; a full-length ACE2 peptide with a C-terminal Fc tag; purchased Sino Biological
The data set can be described thus: biochemical. It counts as binding, SARS-CoV-2 (USA-WA1/2020).

A further data set has as its system Vero-E6 cells. The data set can be described thus: Resazurin cell viability assay in uninfected cells. It counts as cell-based. The procedure: (§1) A total of 20,000 Vero-E6 cells were plated in 96-well plates and incubated overnight before addition of compounds at defined concentrations; 0.1% DMSO vehicle control was added to wells in the absence of test compounds. All experimental conditions were performed in duplicate. Cells were then incubated at 37°C and 5% CO2 for 4 days before addition of resazurin (Sigma-Aldrich) to a final concentration of 20 μg/ml. Cells were incubated for an additional 4 h before fluorescence intensity was measured using a ClarioStar plate reader (BMG Labtech). Background fluorescence was subtracted from wells containing resazurin and D10+ medium but no cells.
(Alamar Blue is a resazurin reagent that responds to reducing activity.)

Data set [2] can be described thus: Resazurin cell viability assay in uninfected cells. The data set is classed as cell-based. The conditions noted are these: African green monkey, uninfected Vero-E6 cells, resazurin, 4 days. Here is the method: as §1
Data set [3] relates to VSVΔG-S-GFP pseudovirus containing SARS-CoV-2 spike from B.1.351. It counts as cell-based, SARS-CoV-2 B.1.351. The conditions noted are these: for % GFP+ nuclei, Average: 50 μM; for Infected cells at 50 μM (%), VSVΔG-S-GFP pseudovirus B.1.351: 24 h.
For data set [4] the following is noted: 200 mg/kg; cited from earlier work.
The target in the next data set is T2, SARS-CoV-2 M^pro (Severe acute respiratory syndrome coronavirus 2, UniProt P0DTD1).
T2 construct: QHD43415.1; amino acids [aa]; 3264 to 3567; HIS-SUMO (N, cleaved yes); made in house; host or cells: E. coli BL21(DE3)
The data set can be described thus: M^pro enzymatic assay (FRET fluorogenic peptide substrate). It counts as biochemical.

The subject of data set [5] is VSVΔG-S-GFP pseudovirus containing SARS-CoV-2 spike (USA-WA1/2020).
Another data set deals with T3, PD-1/PD-L1 (Homo sapiens, UniProt Q9NZQ7).
T3 construct: purchased Sino Biological
T3 sequence (Q9NZQ7 19-239 limits assumed): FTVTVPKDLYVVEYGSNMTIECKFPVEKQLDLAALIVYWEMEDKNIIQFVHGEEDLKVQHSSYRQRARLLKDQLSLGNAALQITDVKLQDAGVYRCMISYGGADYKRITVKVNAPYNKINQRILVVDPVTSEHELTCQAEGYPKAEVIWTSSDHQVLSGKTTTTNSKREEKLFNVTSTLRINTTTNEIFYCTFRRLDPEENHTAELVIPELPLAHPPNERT
The experiment in a line: PD-1/PD-L1 AlphaScreen interaction assay. It counts as binding. For orientation: In Alpha technology, singlet oxygen from a donor bead excites a nearby acceptor bead.

For data set [6], the system named is VSVΔG-S-GFP pseudovirus containing SARS-CoV-2 spike from B.1.1.7. It counts as cell-based, SARS-CoV-2 B.1.1.7. Conditions: for % GFP+ nuclei, Average: 50 μM; for Infected cells at 50 μM (%), VSVΔG-S-GFP pseudovirus B.1.1.7: 24 h.
For data set [7] the following is noted: 200 mg/kg; cited from earlier work. This is another data set of the same source.
For data set [8] the following is noted: 100 mg/kg; cited from earlier work.
Data set [9] relates to SARS-CoV-2 (BetaCov isolate). Conditions: supernatant viral RNA by quantitative PCR after 48 h, read-out: EC50 in SARS-CoV-2-infected Vero-E6 cells; cited from earlier work.
A further data set deals with SARS-CoV-2. The conditions noted are these: read-out: EC50, SARS-CoV-2 replication; cited from earlier work.
In the next data set the test system is RBD with ACE2. The conditions noted are these: read-out: IC50, inhibition of binding of RBD with ACE2; cited from earlier work.
Where [10] appears, read: read-out: IC50 for Spike/ACE2 AlphaScreen.

Several values for one entry are separate records, joined by “and”; a condition that tells them apart may be missing. Identical values can stand only once. Like-named read-outs stand apart in the source and are kept apart here.

Procedure for PD-1/PD-L1: PD-1 binding to PD-L1 was also determined using AlphaScreen technology. […] Next, 5 μl of PD-L1-Fc/protein A acceptor beads was added first to the plate, followed by 100 nl of test compound prepared as described above, followed by 5 μl of PD-1-His/nickel chelate donor beads. For each experiment, all conditions were performed in duplicate. Following 2 h of incubation at room temperature, data were collected as described above and normalized to percentage inhibition, where 100% equaled the AlphaScreen signal in the absence of PD-1-His, and 0% equaled the AlphaScreen signal in the presence of both proteins and 0.1% DMSO alone.

For `Cc1c(COc2cc(OCc3cccc(C#N)c3)c(CN3C[C@H](O)C[C@@H]3C(=O)O)cc2Cl)cccc1-c1ccc2c(c1)OCCO2` [BMS-1166, reference compound], the IC50 in data set [1] (setting [10]) was over 100 µM.
Turning to `CC(C)C[C@H](NC(=O)OCc1ccccc1)C(=O)N[C@@H](CC1CCNC1=O)C(O)S(=O)(=O)O` (stereo partly shown) [GC-376, reference compound], the CC50 (commonly the concentration at which the toxic effect on the cells reaches its halfway point) with Vero-E6 cells (resazurin, 4 days) is over 10 µM.
For `Oc1ccc([C@@H]2c3c(O)cc(O)cc3[C@@H]3c4c(cc(O)cc4[C@H]2[C@@H]2c4cc(O)cc5c4[C@@H](c4cc(O)cc(O)c4[C@H]2c2ccc(O)cc2)[C@H](c2ccc(O)cc2)O5)O[C@H]3c2ccc(O)cc2)cc1` [Hopeaphenol, (–)-hopeaphenol], the CC50 at 4 days in data set [2] was over 100 µM. Besides, the “% GFP+ nuclei, Average” value in data set [3] is recorded as 0.93%; in [5] (50 μM), 0.69%; in [6], 1.83%. Further, in data set [3], the “Infected cells at 50 μM (%), VSVΔG-S-GFP pseudovirus B.1.351” value is 20.4 ± 2.4% and 20.4%. The “Plasma triglyceride elevation in olive oil-treated mice” value in data set [4] was “inhibit plasma triglyceride elevation”. Further, the figures for the IC50 (against SARS-CoV-2 M^pro; against PD-1/PD-L1; in data set [1]) were 42.5 µM, 28.3 µM and 0.11 µM, respectively. Also, the “Infected cells at 50 μM (%), VSVΔG-S-GFP pseudovirus WA1/2020” value in data set [5] (24 h) was 28.2 ± 1.2% and 28.2%. In addition, the “Infected cells at 50 μM (%), VSVΔG-S-GFP pseudovirus B.1.1.7” value in data set [6] is 34.1 ± 13.6% and 34.1%. For the same compound, the “Plasma glucose in sucrose-loaded mice” value in data set [7] was “reduce plasma glucose”. The “Effect against LPS-induced liver injury in mice” value in [8] is recorded as “hepatoprotective effects”. In data set [1], this compound gave a Selectivity index of 257.3.
Turning to `CCC(CC)COC(=O)[C@H](C)N[P@](=O)(OC[C@H]1O[C@@](C#N)(c2ccc3c(N)ncnn23)[C@H](O)[C@@H]1O)Oc1ccccc1` [Remdesivir, remdesivir, reference compound], the CC50 at 4 days in [2] was over 10 µM.
`Oc1ccc(/C=C/c2cc(O)cc(O)c2)cc1` [Resveratrol, resveratrol, reference compound] showed a CC50 at 4 days in data set [2] of about 100 µM. Moreover, the EC50 (as a rule, the midpoint of the concentration-response curve) in data set [9] was 10.7 µM. In addition, the “% GFP+ nuclei, Average” value in data set [5] (50 μM) was 2.36%. The “Total cell nuclei, % of nuclei observed in untreated, infected cells” value in [5] (50 μM, 24 h) is 60.3 ± 7.0%. For the same compound, the “Infected cells at 50 μM (%), VSVΔG-S-GFP pseudovirus WA1/2020” value in data set [5] (24 h) is 96.3 ± 14.7% and 96.3%. Besides, the IC50 in data set [1] is over 100 µM.
In data set [2], `OC[C@H]1O[C@@H](Oc2cc3c4c(c2)[C@@H]([C@@H]2c5cc(O)cc6c5[C@@H](c5cc(O)cc(O)c5[C@H]2c2ccc(O)cc2)[C@H](c2ccc(O)cc2)O6)[C@H](c2ccc(O)cc2)c2c(O)cc(O)cc2[C@H]4[C@H](c2ccc(O)cc2)O3)[C@H](O)[C@@H](O)[C@@H]1O` [Vatalbinoside A, vatalbinoside A] displayed a CC50 at 4 days of over 100 µM. Moreover, the “% GFP+ nuclei, Average” value in data set [3] was 1.87%; in data set [5] (50 μM), 0.99%; in data set [6], 2.35%. In [3], the “Infected cells at 50 μM (%), VSVΔG-S-GFP pseudovirus B.1.351” value is 41.1 ± 2.6% and 41.1%. Also, the IC50 against SARS-CoV-2 M^pro stood at 68.7 µM; on PD-1/PD-L1, 22.3 µM; in data set [1], 0.24 µM. In addition, in data set [5] (24 h), the “Infected cells at 50 μM (%), VSVΔG-S-GFP pseudovirus WA1/2020” value is 40.4 ± 16.7% and 40.4%. The “Infected cells at 50 μM (%), VSVΔG-S-GFP pseudovirus B.1.1.7” value in data set [6] was 43.8 ± 3.4% and 43.8%. In addition, the Selectivity index in data set [1] is recorded as 92.9.
As for `Oc1ccc([C@@H]2c3c(O)cc(O)cc3[C@@H]3c4c(cc(O)c5c4[C@@H]2[C@H](c2ccc(O)cc2)[C@H]5c2cc(O)cc4c2[C@@H](c2cc(O)cc(O)c2)[C@H](c2ccc(O)cc2)O4)O[C@H]3c2ccc(O)cc2)cc1` [Vaticanol B, vaticanol B], in data set [2], the CC50 at 4 days was over 100 µM. Besides, the “% GFP+ nuclei, Average” value in data set [3] was determined as 3.29%; in data set [5] (50 μM) it was 2.05%; in data set [6], 2.02%. Moreover, the “Infected cells at 50 μM (%), VSVΔG-S-GFP pseudovirus B.1.351” value in data set [3] is 72.3 ± 7.3% and 72.3%. The IC50 against SARS-CoV-2 M^pro came out at 47.6 µM; against PD-1/PD-L1, 16.6 µM; in [1] it was 0.067 µM. For the same compound, the “Infected cells at 50 μM (%), VSVΔG-S-GFP pseudovirus WA1/2020” value in [5] (24 h) is 83.7 ± 4.9% and 83.7%. The “Infected cells at 50 μM (%), VSVΔG-S-GFP pseudovirus B.1.1.7” value in data set [6] is 37.7 ± 4.1% and 37.7%. In [1], this compound showed a Selectivity index of 247.8.
Regarding `Oc1ccc([C@H]2Oc3cc(O)cc([C@@H]4[C@H](c5cc(O)cc(O)c5)[C@@H](c5ccc(O)cc5)O[C@H]4c4ccc(O)cc4)c3[C@@H]2c2cc(O)c3c(c2)[C@@H](c2cc(O)cc(O)c2)[C@H](c2ccc(O)cc2)O3)cc1` [kobophenol A], in the data set with SARS-CoV-2, the EC50 is 71.6 µM. Also, the IC50 in the data set with RBD with ACE2 was 1.8 µM.
REGN10933: the “Cytotoxicity by resazurin staining” value in the data set with Vero-E6 cells (4 days of treatment) was “no evidence of cytotoxicity”. Besides, in data set [1] (setting [10]), the IC50 came to 0.00018 µM.

These data come from PMC8597786 (Antimicrobial Agents and Chemotherapy, 2021).
